Test results from US20130085146A1, “LIPID-DRUG FORMULATIONS AND METHODS FOR TARGETED DELIVERY OF LIPID-DRUG COMPLEXES TO LYMPHOID TISSUES” (priority 2003, published 2013).
“Also recorded” adds a separate entry of the source. Where a name gives a salt, the structure may show the parent alone. Read-outs that look alike come from different tables or passages of the source.

Key:
[1] = Degree of drug incorporation into lipid-drug complex (size-exclusion chromatography); format: physicochemical; settings: for Degree of Lipid Association (% total): drug associated with lipid membranes, pH 7.4
Description: (§1) The mixture was rotor-evaporated under N2 and reduced pressure. Then it was resuspended in sterile phosphate-buffered saline (PBS, pH 7.4), to a final lipid concentration of 50 mM, and homogenized with a probe sonicator until a uniform particle size of about 50 nm to about 80 nm diameter was reached. Sonication is preferably done until sonicated unilamellar vesicles that are stable at their minimum diameter are obtained. […] The size and zeta potential (surface potential at hydrodynamic plane) of the lipid-drug complex was monitored using a Malvern Zetasizer 5000 operating at photon correlation spectroscopy mode and electrophoretic mode, respectively. […] The rest of the preparation procedure remains the same.
The degree of drug incorporation into the lipid-drug complex was determined by subjecting a small fraction of the preparation to size-exclusion chromatography using a Biogel A-0.5 M media (1×10 cm). […] By analyzing the amount of fraction in the lipid-associated complex, and free form with respect to the total amount loaded onto the column, the percentage of drug association was determined. (Lian, T. and Ho, R. J. Y., Recent trend and progress in liposome drug delivery systems; an invited minireview, J Pharm Sci 90:667-680 [2001]). To determine pH-dependent drug dissociation from the lipid-drug complex, the lipid-drug complex (originally prepared in pH 7.4 and free of unincorporated drug) can be incubated at, e.g., pH 7, 6, 5.5, 5, 4, 3.5 for 30 min. Subsequently, the mixture can be subjected to the degree of drug incorporation analysis described above. For animal studies, the drug-lipid complex formulations were further analyzed for sterility and endotoxin contamination. To ensure sterility and prevent underestimation of endotoxin that binds to lipids, the lipid-drug complex preparations were subjected to a blood agar culture test for 7 days at 37° C. for detection of microbial contamination.
Subsequently, the % lipid-association was determined by separating free from lipid-associated drug by size-exclusion column chromatography. Data expressed were means of duplicate preparations for indicated pH value.

[2] = cited from earlier work
[3] = Particle size of lipid-drug complex (photon correlation spectroscopy); format: physicochemical; settings: drug associated with lipid membranes, pH 7.4
Description: as §1

[4] = SC 10 mg/kg single dose
Description: These samples were resuspended in 100 μL, and a 10 μL sample was injected onto an RX-C8 column (21 mm×15 cm column) and eluted isocratically with a mobile phase containing 20 mM ammonium acetate in acetonitrile:water (65:35, v/v) running at 0.38 ml/min. […] Under these conditions, the detection limit was 100 pg, which made it possible to measure drug levels, extract RNA and DNA, isolate cells for detailed analyses of vRNA and vDNA-infected cells in lymph nodes, and fix the tissue for pathological analyses from limited sample size.

[5] = system: HIV-2287; experiment: In situ hybridization of lymph node sections for HIV-2 RNA; format: in vivo, Macaca nemestrina; settings: for viral RNA in lymph nodes: 20 mg/kg for 14 days, necropsy day 20
Description: Histological analysis of HIV-infected cells: Histologic sections of lymph node were examined using in situ hybridization for HIV-2 gag RNA. Biopsy and postmortem tissues were preserved in fresh 4% deionized paraformaldehyde, embedded in paraffin wax, and sectioned to 5 μm. The sections were deparaffinized, rehydrated in Tris-buffered saline (TBS; 0.1 M Tris [pH 7.5], 0.1 M NaCl), digested with proteinase K (20-40 μg/ml, 37° C., for 30-50 min; Sigma), and treated overnight at 37° C. in a RNase-free DNase-1 solution (Boehringer Mannheim), as described previously.
The sections were then incubated for 5 min at 70° C. followed by 4 h at 42° C. with antisense RNA probes directed either to SW (strain mac251; Zhang Z Q, Schuler T, Cavert W, et al. Reversibility of the pathological changes in the follicular dendritic cell network with treatment of HIV-1 infection. Proc Nati Acad Sci U S A 1999;96 (9):5169-72) or HIV-2 gag-pol (stain 287; gag 2639-1080, pol 3473-2306; Galabru J, Rey-Cuille M A, Hovanessian A G. Nucleotide sequence of the HIV-2 EHO genome, a divergent HIV-2 isolate. AIDS Res Hum Retroviruses 1995;11 [7]:873-4). The RNA probes were constructed by cloning cDNA into transcription vectors under the control of T7 and SP6 RNA polymerase promoters (pGEM, Promega; Madison, Wis.). […] HIV-2 RNA was detected after autoradiographic exposures of 24 and 96 h.
The presence of viral RNA was indicated by deposition of silver grains on top of cells or as aggregates within lymph node germinal centers (FIG. 7) at a frequency statistically greater than background, as determined using Image-Pro® Plus software (Media Cybernetics, Silver Spring, Md.). Nonspecific background was determined in two ways with equivalent results. Silver grains were counted over 100 germinal center cells in tissue sections from mock-inoculated uninfected animals after hybridization to the HIV-2 or SIV antisense probe, or over cells from the tissues of infected monkeys after hybridization to noncomplimentary ‘sense’ RNA probes. […]

[6] = cited from earlier work; remark: listed apart in the source
[7] = system: HIV-2287; experiment: microbe, parasite or virus in culture; format: cell-based, HIV-2
Description: (§2) The effective concentrations that produce half the maximum anti-HIV activity (EC50) were determined based on non-linear regression of each set of data, representing the frequency of replication.
After incubating the cells at 37° C. in RPMI 1640 containing 10% fetal calf serum for 4 days (optimum detection time), the presence of virus-infected cells was determined visually by the presence of syncytia and was subsequently confirmed by ELISA detection of the presence of HIV-2 antigen. Experiments were repeated on at least two different days with each determination done in quadruplicate samples, and the data presented in FIG. 3 are the mean % virus-infected cells.

[8] = Example 10; SC 20 mg/kg/day, two animals
[9] = system: HIV-2287; format: in vivo, Macaca nemestrina; settings: for CD4+ T cell, After: after therapy; for CD4+ T cell, After / CD4+ T cell, Before: SC 22 mg/kg daily, 14 doses; for CD4+ T cell, Before: before therapy
Description: Total RNA was isolated from plasma and lymphoid tissues using a Purescript RNA Isolation Kit (Gentra Systems, Minneapolis, Minn.). Viral RNA was measured using a quantitative, internally-controlled RNA PCR to estimate the number of HIV-2 copies/ml of sample (Watson A, Ranchalis J, Travis B, et al., Plasma viremia in macaques infected with simian immunodeficiency virus: plasma viral load early in infection predicts survival, J Virol 1997;71 (1):284-90) for some of the experiments and real-time quantitative PCR. The two methods have been validated to ensure consistency in estimating viral RNA concentration in plasma and tissues. Briefly, reverse transcription and PCR were performed as described. Because semi-quantitative methods have been well-documented (Watson, et al., 1997), only details on RT-QPCR are described below.
Lymphocyte subset analysis: Fluorescent labeled monoclonal antibodies to lymphocyte surface markers were used to quantitate populations of T cells (CD2+), helper T cells (CD4^+), suppressor T cells (CD8^+), and B cells (CD20^+) in maternal (1 ml) and fetal (150 μl) blood using procedures previously described (Ho R J, Agy M B, Morton W R, et al. Development of a chronically catheterized maternal-fetal macaque model to study in utero mother-to-fetus HIV transmission: a preliminary report. J Med Primatol 1996;25 (3):218-24).
Plasma cholesterol level was monitored to evaluate the effects of cholesterol given as a part of lipid formulation.

[10] = system: HIV-1LAV; experiment: Inhibition of HIV-1LAV replication in human PBMCs (p24 antigen); format: cell-based; settings: Human immunodeficiency virus 1, PBMC
Description: as §2

[11] = Indinavir accumulation in lymph nodes after oral free indinavir; format: in vivo, macaques; settings: macaque; for Kp at […]: po, 25 mg/kg; for Kp at […] / Kp at 2 hr / Kp at 3.75 hr: read-out: Lymph node to plasma ratio; for Kp at 2 hr / Kp at 3.75 hr: oral 25 mg/kg; for Kp at 2 hr / concentration at 2 hr: animal 94094; for Kp at 3.75 hr / concentration at 3.75 hr: animal 94096; for concentration at 2 hr / concentration at 3.75 hr: oral 25 mg/kg in solution
[12] = axillary lymph node / plasma, axillary
[13] = inguinal lymph node / plasma, inguinal
[14] = neutral pH, listed as tenofovir

Cc1c(O)cccc1C(=O)N[C@@H](CSc1ccccc1)[C@H](O)CN1C[C@H]2CCCC[C@H]2C[C@H]1C(=O)NC(C)(C)C (relative stereo) [Nelfinavir, [3S-[2(2S*, 3S*), 3a,4ab,8ab]]-N-(1,1-dimethylethyl)decahydro-2-[2-hydroxy-3-[(3-hydroxy-2-methylbenzoyl)amino]-4-(phenylthio)butyl]-3-isoquinolinecarboxamide mono-methanesulfonate (salt)]
% Associated with lipid-drug nanoparticles: Nelfinavir ([1]; DSPC:mPE-DSPE formulation): 100 ± 9.8% | Degree of Lipid Association (% total) [1]: 100.5 ± 9.8 % total | incorporation into lipid-drug complexes (in words) ([1]; neutral pH): incorporate nearly completely; also recorded: high degree of lipid association | solubility in methanol, ethanol, isopropanol and propylene glycol [2]: freely soluble | solubility in water ([2]; pH<4): slightly soluble | Size in Diameter [3]: 123 ± 16 nm

CC(C)(C)NC(=O)[C@@H]1CN(Cc2cccnc2)CCN1C[C@@H](O)C[C@@H](Cc1ccccc1)C(=O)N[C@H]1c2ccccc2C[C@H]1O [Indinavir, N-(2(R)-hydroxy-1(S)-indanyl)-2(R)-phenylmethyl-4-(S)-hydroxy-5-(1-(4-(3-pyridyl-methyl)-2(S)-N′-(t-butylcarboxamido)-piperazinyl))-pentaneamide]
% Associated with lipid-drug nanoparticles: Indinavir ([1]; DSPC:mPE-DSPE formulation): 97.5 ± 2.50% | Degree of Lipid Association (% total) [1]: 97.5 ± 2.5 % total | incorporation into lipid-drug complexes (in words) ([1]; neutral pH): completely or nearly completely; also recorded: incorporate nearly completely | indinavir preparation incorporated in lipid-indinavir complex ([1]; neutral pH, lipid-to-drug molar ratio about 5:1 to about 10:1): 80-100% | drug incorporated into the lipid bilayer of liposomes ([1]; pH 4, lipid-to-drug ratio 5:1 (m/m)): < 30% | drug associated with liposome ([1]; pH 7.4, lipid-to-drug ratio 5:1 (m/m)): 85-95% | time of plasma drug concentration peak [4]: 0.5 to 1 h | HIV-2 RNA in lymph node germinal centers (in words) ([5]; axillary and mesenteric lymph nodes): showed aggregates of HIV-RNA in lymph node germinal centers | viral RNA in lymph nodes ([5]; macaque 215): 13,290±1,450 gag-pol RNA copies/50× field | viral RNA in lymph nodes ([5]; macaque 283): 8,134±890 gag-pol RNA copies/50× field | LogP (lipophilicity) ([6]; pH 3.5): 0 | LogP (lipophilicity) ([6]; pH 5): 1.8 | LogP (lipophilicity) ([6]; pH 7): 3 | EC50 ([7]; Human immunodeficiency virus 2, CEM174, 96 h, read-out: EC50 (50% effective inhibitory concentration)): 50 to 80 nM | EC50 ([7]; Human immunodeficiency virus 2, CEM174, read-out: in vitro ED50 against HIV-2287): 60 to 80 nM | time by which drug levels subsided below detectable levels [8]: 4 to 5 h | plasma virus load ([9]; Example 10: SC 20 mg/kg/day for 14 days, 30 weeks post-infection): did not exhibit a significant virus load reduction | CD4+ T cells after two weeks of treatment (in words) ([9]; four HIV-2287-infected animals, Table 5): the same pattern was not observed | CD4+ T cell, After ([9]; macaque 215): 1473 per μL | CD4+ T cell, Before ([9]; macaque 215): 1946 per μL | CD4+ T cell, After ([9]; macaque 283): 1051 per μL | CD4+ T cell, Before ([9]; macaque 283): 1650 per μL | EC50 ([10]; CD8-depleted human PBMCs, HIV-1 p24 antigen): > 150 nM | inhibition at 15 µM ([10]; at 15 μM): < 100% | Size in Diameter [3]: 69 ± 7 nm | Kp at […] ([11]; axillary lymph node / plasma): 0.01 | Kp at 2 hr [11, 12]: 0.02 | Kp at 3.75 hr [11, 12]: 0.0035 | concentration at 2 hr ([11]; axillary lymph node, axillary): 0.084 ng/mL | concentration at 3.75 hr ([11]; axillary lymph node, axillary): 0.141 ng/mL | Kp at […] ([11]; inguinal lymph node / plasma): 0.03 | Kp at 2 hr [11, 13]: 0.01 | Kp at 3.75 hr [11, 13]: 0.01 | concentration at 2 hr ([11]; inguinal lymph node, inguinal): 0.056 ng/mL | concentration at 3.75 hr ([11]; inguinal lymph node, inguinal): 0.481 ng/mL | concentration at 2 hr ([11]; plasma): 5.2 ng/mL | concentration at 3.75 hr ([11]; plasma): 39.8 ng/mL

Cc1cccc(C)c1OCC(=O)N[C@@H](Cc1ccccc1)[C@@H](O)C[C@H](Cc1ccccc1)NC(=O)[C@H](C(C)C)N1CCCNC1=O [Lopinavir]
% Associated with lipid-drug nanoparticles: Lopinavir ([1]; DSPC:mPE-DSPE formulation): 100 ± 0.9%

CC(C)c1nc(CN(C)C(=O)N[C@H](C(=O)N[C@@H](Cc2ccccc2)C[C@H](O)[C@H](Cc2ccccc2)NC(=O)OCc2cncs2)C(C)C)cs1 [Ritonavir]
% Associated with lipid-drug nanoparticles: Ritonavir ([1]; DSPC:mPE-DSPE formulation): 100 ± 1.0%

CC(C)(C)NC(=O)[C@@H]1C[C@@H]2CCCC[C@@H]2CN1C[C@@H](O)[C@H](Cc1ccccc1)NC(=O)[C@H](CC(N)=O)NC(=O)c1ccc2ccccc2n1 [Saquinavir, N-tert-butyl-decahydro-2-[2(R)-hydroxy-4-phenyl-3(S)-[[N-(2-quinolylcarbonyl)-L-asparaginyl]-amino]butyl]-(4aS,8aS)-isoquinoline-3 (S)-carboxamide]
% Associated with lipid-drug nanoparticles: Saquinavir ([1]; DSPC:mPE-DSPE formulation): 98.9 ± 7.5% | Degree of Lipid Association (% total) [1]: 98.8 ± 7.5 % total | incorporation into lipid-drug complexes (in words) ([1]; neutral pH): incorporate nearly completely; also recorded: high degree of lipid association | Size in Diameter [3]: 159 ± 36 nm

C[C@H](Cn1cnc2c(N)ncnc21)OCP(=O)(O)O [Tenofovir]
incorporation into lipid-drug complexes (in words) ([1]; neutral pH): quite low efficiency | incorporation into lipid-drug complexes (in words) [1, 14]: much lower efficiency | solubility in water ([2]; neutral pH): soluble in water | solubility in water [2, 14]: quite soluble

CC(C)OC(=O)OCOP(=O)(CO[C@H](C)Cn1cnc2c(N)ncnc21)OCOC(=O)OC(C)C.O=C(O)/C=C/C(=O)O [Viread ®, 9-[(R)-2-[[bis[[(isopropoxycarbonyl)oxy]methoxy]phosphinyl]methoxy]propyl]adenine fumarate (1:1)]
Degree of Lipid Association (% total) [1]: 4.2 ± 0.7 % total | Size in Diameter [3]: 60 ± 10 nm

O=C(O)CN(CC(=O)O)Cc1cc2c(cc1O)Oc1cc(O)c(CN(CC(=O)O)CC(=O)O)cc1C21OC(=O)c2ccccc21 [calcein]
incorporation into lipid-drug complexes (in words) ([1]; neutral pH): completely or nearly completely
